Values after ≈ are worked out from the molar mass of the structure shown.
How the values were obtained:
E. coli CFT073 Δlpp = test: MIC; type: cell-based
Method: (§1) MICs of compounds in each strain were determined in cation-adjusted Mueller-Hinton II (MHII) broth or MHII agar according to the Clinical and Laboratory Standards Institute protocol (CLSI 2006). To measure the effect of protein binding on activity, MIC assays were performed in the presence of 50% heat-inactivated human serum. The serum killing assay was performed as described previously ([43]). FOR assays and growth on plates containing G0790 were always performed on MHII agarose plates.

E. coli MG1655 ΔtolC = test: MIC; type: cell-based; settings: E. coli MG1655 WT vs MG1655 ΔtolC
Method: as §1

S. aureus USA300 = test: MIC; type: cell-based; settings: in words
Method: as §1

G0790-resistant CFT073 = test: MIC after in vitro passaging of G0790-resistant strains; type: cell-based, E. coli; settings: in words
Method: This bacterial culture is referred to as passage 1 (P1). […] For each passage, MICs were measured and cell lysates and genomic DNA were prepared for Western blot and whole-genome sequencing analyses, respectively.

[1] = test system: G0790-resistant CFT073 Δlpp; test: MIC against G0790-resistant CFT073 Δlpp strains; type: cell-based, E. coli; settings: non-lspA_GA
Method: as §1
Frequencies of resistance (FORs) of G0790 were determined for E. coli CFT073, E. cloacae (ATCC 13047), and K. pneumoniae (ATCC 700603) as previously published ([70]). To determine the FOR, 3 to 4 colonies of the strain to be tested were picked from a fresh plate and diluted to an optical density at 600 nm (OD600) of 0.00001 in 1 ml of cation-adjusted MHBII. Ten independent 5-ml cultures in MHBII were prepared by inoculating 5 μl (approximately 1 × 10^3 CFU) and incubated at 37°C for 18 h. […] In parallel, CFU from each independent culture was measured by spotting 10-fold serial dilutions on MHII agar plates and incubated at 37°C for 18 h. Colonies were counted at days 1, 2, and 3 postinoculation. FOR was calculated as the ratio of the total number of resistant colonies relative to the total CFU plated. […]

Lpp = Lpp localization in peptidoglycan-associated and membrane fractions, Western blot; type: cell-based, E. coli; settings: CFT073, 2× MIC G0790
Method: Purification of peptidoglycan-associated proteins (PAPs) was performed according to published methods ([43], [67], [68]) with some modifications. Briefly, bacteria were harvested in mid-exponential phase for treatment and then subjected to PAP extraction by resuspending cell pellets from an optical density (OD; A600) of 10 in 6 ml of PAP extraction buffer containing 2% (wt/vol) SDS in 100 mM Tris-HCl (pH 8.0) with 100 mM NaCl, 10% glycerol, and cOmplete mini EDTA-free protease inhibitor cocktail (Sigma-Aldrich). After 60 min at room temperature (RT), the extraction was subjected to centrifugation at 100,000 × g for 60 min at 22°C, and the pellet, containing peptidoglycan-associated proteins, was washed once with the same PAP extraction buffer with centrifugation at 100,000 × g for 30 min and resuspended in 200 μl of PAP extraction buffer (referred to as the SDS-insoluble or PAP fraction). The supernatant containing the SDS-soluble fraction was aliquoted and frozen (referred to as the non-PAP fraction). Both fractions were treated with equal volumes of BugBuster buffer prior to the addition of sample buffer for Western immunoblotting as described above.
The inner and outer membrane fractionations of bacterial cells were performed according to published methods ([69]), with some modifications. […]

CCCCCC[C@H]1OC(=O)CNC(=O)[C@H]([C@H](C)O)NC(=O)[C@H](CN)NC(=O)[C@H](C2CCCCC2)NC(=O)[C@H](CCC)N(C)C(=O)[C@@H]1C [G0790]
MIC (E. coli CFT073 Δlpp; CFT073 Δlpp parent, resistant-strain study): 19.5 µg/mL (≈ 29.2 µM)
Susceptibility of CFT073 Δlpp relative to parental WT (E. coli CFT073 Δlpp; in words): more resistant to G0790 than the parental WT strain
WT/tolC MIC shift (E. coli MG1655 ΔtolC): ~31 fold
Activity against S. aureus USA300 (S. aureus USA300): no increased activity
MIC after passaging in the absence of G0790, lspA_GA mutants (G0790-resistant CFT073; 4×-R3, 4×-R10, 8×-R1, 8×-R5, 3 days): comparable to the MIC of the parental WT strain
Phenotype after passaging in the absence of G0790, 8×-R5 (G0790-resistant CFT073; 8×-R5 (GA and ISEc10-istB insertion upstream of lpp)): reverted to the WT phenotype
Resistance after passaging in the absence of G0790, lpp insertion (downstream) or lpp deletion strains (G0790-resistant CFT073; 3 days): maintained resistance to G0790
MIC ([1]; CFT073 Δlpp 4×-R1, lspA_GA): 78 µg/mL (≈ 117 µM)
MIC ([1]; CFT073 Δlpp 4×-R2, lspA_GA): 78 µg/mL (≈ 117 µM)
Lpp localization after treatment (Lpp): loss of the peptidoglycan-associated form of Lpp in the outer membrane and its accumulation in the inner membrane

— article PMC7482066, “Unstable Mechanisms of Resistance to Inhibitors of Escherichia coli Lipoprotein Signal Peptidase” (mBio, 2020)
